The results in this text go back to ChEMBL document CHEMBL4627347, “The signal peptide as a new target for drug design” (Bioorg Med Chem Lett, 2020).

Assay [1] has as its target T1, Sortilin (Homo sapiens, UniProt Q99523).
T1 sequence (Q99523 whole entry): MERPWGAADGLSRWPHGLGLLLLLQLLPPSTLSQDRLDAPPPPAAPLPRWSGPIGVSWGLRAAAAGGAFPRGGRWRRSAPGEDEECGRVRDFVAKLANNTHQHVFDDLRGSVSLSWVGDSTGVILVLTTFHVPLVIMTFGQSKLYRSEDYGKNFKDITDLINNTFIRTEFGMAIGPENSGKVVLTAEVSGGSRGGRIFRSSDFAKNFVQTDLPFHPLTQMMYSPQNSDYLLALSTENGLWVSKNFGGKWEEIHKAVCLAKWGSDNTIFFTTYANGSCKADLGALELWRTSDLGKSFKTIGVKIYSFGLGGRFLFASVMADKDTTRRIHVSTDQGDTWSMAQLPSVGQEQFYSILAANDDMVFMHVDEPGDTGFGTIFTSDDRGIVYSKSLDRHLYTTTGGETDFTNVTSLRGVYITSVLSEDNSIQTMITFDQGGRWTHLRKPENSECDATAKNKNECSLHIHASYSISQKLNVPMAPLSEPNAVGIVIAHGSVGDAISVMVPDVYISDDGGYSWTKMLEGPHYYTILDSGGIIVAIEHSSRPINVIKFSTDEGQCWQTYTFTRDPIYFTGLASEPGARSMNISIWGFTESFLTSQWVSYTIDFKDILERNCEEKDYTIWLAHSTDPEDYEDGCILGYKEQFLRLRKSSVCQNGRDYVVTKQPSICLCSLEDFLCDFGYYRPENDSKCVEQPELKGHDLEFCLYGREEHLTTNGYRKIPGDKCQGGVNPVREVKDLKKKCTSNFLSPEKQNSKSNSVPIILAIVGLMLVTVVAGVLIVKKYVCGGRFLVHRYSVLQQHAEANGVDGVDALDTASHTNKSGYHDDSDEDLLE
Briefly: Inhibition of GFP-tagged Sortilin (unknown origin) expressed in HEK293T cells after 42 hrs by FACS analysis. The assay is classed as cell-based, HEK-293T.

For assay [2], the target named is T-cell surface glycoprotein CD4 (Homo sapiens, UniProt P01730). Briefly: Inhibition of FITC-tagged human CD4 expressed in human SUP-T1 cells after 72 hrs by FACS analysis. The format is cell-based. In general terms: In flow cytometry, cells or beads pass a laser one at a time.

Molecules are shown by their SMILES.

On to `C=C1CN(S(=O)(=O)c2ccc(C)cc2)CCCN(Cc2ccccc2)CCCN(S(=O)(=O)c2ccc(C)cc2)C1`, for which the half-inhibitory concentration (IC50) (as a rule, the point on the concentration scale where inhibition reaches its midpoint) came out at 380 nM in assay [1] and 210 nM in assay [2].
